According to patent US20240132431A1, “METHOD FOR ALKYLATING ACIDIC FUNCTIONAL GROUP” (Chugai Seiyaku Kabushiki Kaisha, priority 2021, published 2024):
Like-named read-outs stand apart in the source and are kept apart here.

Columns and labels:
[1] = cited from earlier work; for Base/pKBH+ (CH3CN): transcribed from the Aldrich web site for phosphazene bases; for Base/pKBH^+ (CH3CN): pKa of conjugate acid of the base in CH3CN
[2] = target: T1, Bcl-2 protein (Recombinant Human Bcl-2 Protein) (Homo sapiens, UniProt P10415); assay: Binding evaluation of mixture library compounds to Bcl-2 using AS-MS (affinity selection mass spectrometry); details: for ASMS ratio (%) n = 1 / ASMS ratio (%) n = 2: AS-MS, mixture library, Bcl-2, ASMS Ratio(%)=(A−C)/B×100; for ASMS ratio (%) n = 1: replicate n = 1; for ASMS ratio (%) n = 2: replicate n = 2
T1 construct: purchased Novus NBP2-34889
T1 sequence (P10415 whole entry): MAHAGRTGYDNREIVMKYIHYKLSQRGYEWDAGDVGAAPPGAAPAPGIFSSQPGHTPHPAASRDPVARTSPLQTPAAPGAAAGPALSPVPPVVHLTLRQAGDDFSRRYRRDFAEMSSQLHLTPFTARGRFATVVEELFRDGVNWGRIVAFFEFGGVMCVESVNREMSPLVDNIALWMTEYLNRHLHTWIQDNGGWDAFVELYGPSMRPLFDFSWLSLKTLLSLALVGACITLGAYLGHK
Method in brief: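 Pooled library of ~1200 compounds ([…] each, final) incubated with recombinant human Bcl-2 (20 μM final) in Tris-HCl pH 7.4, NaCl, Tween-20, DTT buffer, dark, 23° C., 1 h. Bound fraction recovered by SEC spin column, organic extraction, reversed-phase LC/MS. ASMS Ratio (%) = (A−C)/B×100 versus protein-free standard and SEC blank.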

human Bcl-2 protein = target: T2, human Bcl-2 protein (Homo sapiens, UniProt P10415); assay: Binding evaluation of compounds to Bcl-2 by surface plasmon resonance (SPR); details: for equilibrium dissociation constant KD compared to compound B2Q045-01: binding to Bcl-2
T2 construct: purchased Novus Biologicals
T2 sequence (P10415 whole entry): as above
Protocol: In order to analyze the binding affinity of the compounds shown in [Table AK-O1] and synthesized in Example 8 to Bcl-2, the surface plasmon resonance method was used. Biacore T200 (GE Healthcare) was used as the apparatus, and HBS (10 mM HEPES-NaOH, 150 mM NaCl, pH 7.4) to which 1 mM DTT, 3 mM EDTA, 0.01% Tween 20, and 4% DMSO had been added was used as the running buffer. The human Bcl-2 protein (Novus Biologicals) was biotinylated using EZ-Link Sulfo-NHS-LC-LC-biotin (Thermofisher scientific) and immobilized on the surface of Sensor Chip SA (GE Healthcare). Thereafter, compound solutions of multiple concentrations and the running buffer (blank) were added to the Bcl-2 immobilized surface to obtain the binding response of the compounds. The measurement was carried out at 15° C.

[3] = Table 3-5-3, from Aldrich web site and Chem. Eur. J. 2021, 27, 4216-4229
[4] = Table 3-5-1, transcribed from Aldrich web site
[5] = Table 3-5-2, transcribed from Aldrich web site
[6] = first value in parentheses, (A−C)/B×100, 1200-compound mixture, Bcl-2 20 μM
[7] = second value in parentheses, (A−C)/B×100, 1200-compound mixture, Bcl-2 20 μM
[8] = Biacore T200, biotinylated human Bcl-2 immobilized on Sensor Chip SA, 15° C., compounds found by AS-MS evaluation of synthesized library, read-out: Equilibrium dissociation constant KD

ASMS ratio (%) n = 1 [2] [%] | ASMS ratio (%) n = 2 [2] [%] | ASMS ratio (%) [2, 6] [%] | ASMS ratio (%) [2, 7] [%] | Structure (SMILES) | Base/pKBH^+ (CH3CN) [1, 3] | further results
 |  |  |  | CN(C)P(=NC(C)(C)C)(N=P(N(C)C)(N(C)C)N(C)C)N(C)C [P2tBu, 1-tert-Butyl-2,2,4,4,4-pentakis(dimethylamino)-2λ^5,4λ^5-catenadi(phosphazene)] |  | Base/pKBH+ (CH3CN) ([1]; Table 3-1): (33.5); Base/pKBH+ (CH3CN) ([1]; Table 3-4): P2tBu (33.5)
 |  |  |  | CCN(C(C)C)C(C)C [DIPEA, N,N-Diisopropylethylamine] | (18.8) | pKBH+ value in CH3CN ([1]; Example 3-5-3, Aldrich web site and Chem. Eur. J. 2021, 27, 4216-4229): 18.8
 |  |  |  | CCN=P(N=P(N(C)C)(N(C)C)N(C)C)(N(C)C)N(C)C [P2Et, 1-Ethyl-2,2,4,4,4-pentakis(dimethylamino)-2λ^5,4λ^5-catenadi(phosphazene)] | (32.9) | Base/pKBH+ (CH3CN) ([1]; Table 2-2): 32.9; Base/pKBH+ (CH3CN) ([1]; Table 3-1): (32.9); Base/pKBH^+ (CH3CN) ([1]; Table 3-3, transcribed from Aldrich web site): (32.9)
 |  |  |  | CC(C)(C)N=P(N1CCCC1)(N1CCCC1)N1CCCC1 [BTPP, tert-Butylimino-tri(pyrrolidino)phosphorane] | (28.4) | Base/pKBH^+ (CH3CN) [1, 4]: (28.4); Base/pKBH^+ (CH3CN) [1, 5]: (28.4)
 |  |  |  | CN(C)P(=NC(C)(C)C)(N(C)C)N(C)C [P1tBu, tert-Butylimino-tris(dimethylamino)phosphorane] | (26.9) | Base/pKBH+ (CH3CN) ([1]; Table 2-2): 26.9; Base/pKBH+ (CH3CN) ([1]; Table 3-4): P1tBu (26.9); Base/pKBH^+ (CH3CN) [1, 4]: (26.9); Base/pKBH^+ (CH3CN) [1, 5]: (26.9)
 |  |  |  | CN(C)C(=NC(C)(C)C)N(C)C [BTMG, 2-tert-butyl-1,1,3,3-tetramethylguanidine] | (23.6) | 
 |  |  |  | C1CN=C2NCCCN2C1 [TBD, 1,5,7-triazabicyclo[4.4.0]dec-5-ene] | (26.0) | 
40.7 | 36.9 | 40.7 | 36.9 | CCOc1cncc(-c2ccc(CN3CCN(c4ccc(C(=O)NS(=O)(=O)c5ccc(NCCSc6ccccc6)c([N+](=O)[O-])c5)cc4)CC3)c3ccccc23)c1 [B2Q066-01, 4-[4-[[4-(5-ethoxypyridin-3-yl)naphthalen-1-yl]methyl]piperazin-1-yl]-N-[3-nitro-4-(2-phenylsulfanylethylamino)phenyl]sulfonylbenzamide] |  | Kd (human Bcl-2 protein; [8]): 950 nM
142.5 | 326.4 | 142.5 | 326.4 | CCOc1cccc(-c2ccc(CN3CCN(c4ccc(C(=O)NS(=O)(=O)c5ccc(NCCSc6ccccc6)c([N+](=O)[O-])c5)cc4)CC3)cc2C)c1 [B2Q047-01, 4-[4-[[4-(3-ethoxyphenyl)-3-methylphenyl]methyl]piperazin-1-yl]-N-[3-nitro-4-(2-phenylsulfanylethylamino)phenyl]sulfonylbenzamide] |  | Kd (human Bcl-2 protein; [8]): 700 nM; equilibrium dissociation constant KD compared to compound B2Q045-01 (human Bcl-2 protein): smaller equilibrium dissociation constants KD
21.4 | 22.5 | 21.4 | 22.5 | CCOc1cncc(-c2ccccc2CCC(=O)N2CCN(c3ccc(C(=O)NS(=O)(=O)c4ccc(NCCSc5ccccc5)c([N+](=O)[O-])c4)nn3)CC2)c1 [B2Q012-01, 6-[4-[3-[2-(5-ethoxypyridin-3-yl)phenyl]propanoyl]piperazin-1-yl]-N-[3-nitro-4-(2-phenylsulfanylethylamino)phenyl]sulfonylpyridazine-3-carboxamide] |  | Equilibrium dissociation constant KD (human Bcl-2 protein; Biacore T200, biotinylated human Bcl-2 immobilized on Sensor Chip SA, 15° C., compounds found by AS-MS evaluation of synthesized library): Bound
61.6 | 90.8 | 61.6 | 90.8 | CCOc1cncc(-c2ccc(CN3CCN(c4ccc(C(=O)NS(=O)(=O)c5ccc(NCCSc6ccccc6)c([N+](=O)[O-])c5)cc4)CC3)cc2C)c1 [B2Q048-01, 4-[4-[[4-(5-ethoxypyridin-3-yl)-3-methylphenyl]methyl]piperazin-1-yl]-N-[3-nitro-4-(2-phenylsulfanylethylamino)phenyl]sulfonylbenzamide] |  | Kd (human Bcl-2 protein; [8]): 480 nM; equilibrium dissociation constant KD compared to compound B2Q045-01 (human Bcl-2 protein): smaller equilibrium dissociation constants KD
 |  |  |  | CCOc1cccc(-c2ccccc2CN2CCN(c3ccc(C(=O)NS(=O)(=O)c4ccc(NCCSc5ccccc5)c(C(F)(F)F)c4)cc3)CC2)c1 [B2R045-01, 4-[4-[[2-(3-ethoxyphenyl)phenyl]methyl]piperazin-1-yl]-N-[4-(2-phenylsulfanylethylamino)-3-(trifluoromethyl)phenyl]sulfonylbenzamide] |  | ASMS ratio (%) ([2]; n = 1): 4.8%; ASMS ratio (%) ([2]; n = 2): −3.4%; Equilibrium dissociation constant KD (human Bcl-2 protein; Biacore T200, 15° C., compounds synthesized before performing library synthesis): Bound; Kd (human Bcl-2 protein; binding to Bcl-2, compounds evaluated before library synthesis, read-out: KD): > 20000 nM
